Laboratory results published in US20260226071A1, “2, 4-DIANILINOPYRIMIDINE-BASED AURORA-A KINASE SELECTIVE DEGRADATION INDUCING COMPOUNDS” (UPPTHERA, INC., priority 2023, published 2026).

Target: T1, Aurora kinase A (AURKA) (Homo sapiens, UniProt O14965)
T1 construct: endogenous in cells; host or cells: HeLa LgBit (AURKA-HiBit KI), CRISPR/Cas9 knock-in at the endogenous AURKA locus
T1 sequence (O14965 1-403): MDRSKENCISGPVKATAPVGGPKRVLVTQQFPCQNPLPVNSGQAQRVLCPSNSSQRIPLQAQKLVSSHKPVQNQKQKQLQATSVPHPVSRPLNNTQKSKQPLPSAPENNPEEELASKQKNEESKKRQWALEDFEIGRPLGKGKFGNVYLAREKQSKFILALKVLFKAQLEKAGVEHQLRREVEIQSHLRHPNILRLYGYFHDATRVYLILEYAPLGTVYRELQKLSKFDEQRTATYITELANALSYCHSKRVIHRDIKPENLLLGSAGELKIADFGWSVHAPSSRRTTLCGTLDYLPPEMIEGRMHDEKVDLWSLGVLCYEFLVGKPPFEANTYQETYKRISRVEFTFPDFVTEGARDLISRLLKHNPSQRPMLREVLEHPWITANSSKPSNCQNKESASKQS
Experiment: Luciferase assay for AURKA in HeLa LgBit (AURKA-HiBit KI) cell line
Type: cell-based
Details: HeLa LgBit (AURKA-HiBit KI) cells, measured after 12 hours
Text: HeLa cell lines that stably express LgBit were constructed via LgBit vector transfection. Then, donor DNA and guide RNA for insertion of HiBit amino acid sequence at C-terminus of inherent Aurora kinase A (AURKA) genes were designed and constructed. Thereafter, they were transfected into the cell lines with CRISPR/Cas9 expression vector system. HiBit gene knock-in single cells were selected, passaged and used for the experiments.
For cell culture, DMEM (Gibco, Cat. No. 11995-065; Lot. No. 2562497), FBS (Gibco, Cat. No. 16000-044; Lot. No. 2511328P), Penicillin/Streptomycin (PS) (Gibco, Cat. No. 15140-122; Lot. No. 2585636), 90 mm^2 cell culture dish (SPL, Cat. No. 20100), 96-well white plate, PBS pH 7.4 (Gibco, […]), TrypLE™ Express (Gibco, Cat. No. 12605-010; Lot. No. 2522525), counting chamber (hematocytometer) (Hirschmann, Cat. No. 8100204; Lot. No. 8021087) and 0.4% Trypan Blue solution (DYNEBIO, Cat. No. CBT3710; Lot. No. 20231017) were used. Cells were cultured in DMEM supplemented with 10% FBS and 1% PS and incubated in CO2 incubator (Thermo, Cat. No. 4111) at 37° C., 5% CO2 condition.
HeLa LgBit (AURKA-HiBit KI) cell lines were cultured in 90 mm^2 cell culture dish, and 3×10^4 cells in […] of total medium volume were seeded and incubated for 18 hours in CO2 incubator. Then, Eudurazine (Promega, Cat. No. N247B; Lot. No. 495218) was added to each well to make up 1% of the total volume, followed by further incubation for 2 hours in CO2 incubator.
The present compounds were fully dissolved in DMSO (Sigma-Aldrich Cat. No. D2438, Lot. No. RNBL7287) and 10 nM or 100 nM of total concentration were used in the experiment. After adding the compounds in each well of 96-well white plate, the plate was placed in the plate reader (BMG Labtech, CLARIOstar Plus) for real-time analysis. The wavelength for analysis was set to […], and the luminescence value was measured after 12 hours. The luminescence value was analyzed through an Excel program.

| Structure (SMILES) | luminescence value (Level) (10 nM compound) | luminescence value (Level) (100 nM compound) |
| --- | --- | --- |
| O=C1CCC(Nc2ccc(N3C[C@@H]4[C@@H](CN5CCC(NC(=O)c6ccc(Nc7ncc(F)c(Nc8ccc(C(=O)Nc9ccccc9Cl)cc8)n7)cc6)CC5)[C@@H]4C3)cc2)C(=O)N1 (stereo partly drawn) [Compound 27, N-(2-chlorophenyl)-4-((2-((4-((1-(((1R,5S,6s)-3-(4-((2,6-dioxopiperidin-3-yl)amino)phenyl)-3-azabicyclo[3.1.0]hexan-6-yl)methyl)piperidin-4-yl)carbamoyl)phenyl)amino)-5-fluoropyrimidin-4-yl)amino)benzamide] | B (B is 0.3 to 0.5) | B (B is 0.2 to 0.4) |
| O=C1CCC(Nc2ccc(N3CC4CN(CC5CN(C(=O)c6ccc(Nc7ncc(F)c(Nc8ccc(C(=O)Nc9ccccc9Cl)cc8)n7)cc6)C5)CC4C3)cc2)C(=O)N1 (centres unmarked) [Compound 34, N-(2-chlorophenyl)-4-((2-((4-(3-((5-(4-((2,6-dioxopiperidin-3-yl)amino)phenyl)hexahydropyrrolo[3,4-c]pyrrol-2(1H)-yl)methyl)azetidine-1-carbonyl)phenyl)amino)-5-fluoropyrimidin-4-yl)amino)benzamide] | B (B is 0.3 to 0.5) | A (A is <0.2) |
| O=C1CCC(Nc2ccc(N3CCC(CN4C[C@@H]5[C@H](C4)[C@H]5NC(=O)c4ccc(Nc5ncc(F)c(Nc6ccc(C(=O)Nc7ccccc7Cl)cc6)n5)cc4)CC3)cc2)C(=O)N1 (stereo partly drawn) [Compound 40, N-(2-chlorophenyl)-4-((2-((4-(((1R,5S,6s)-3-((1-(4-((2,6-dioxopiperidin-3-yl)amino)phenyl)piperidin-4-yl)methyl)-3-azabicyclo[3.1.0]hexan-6-yl)carbamoyl)phenyl)amino)-5-fluoropyrimidin-4-yl)amino)benzamide] | B (B is 0.3 to 0.5) | A (A is <0.2) |
| O=C1CCC(c2ccc(C#CC3CCN(C4CCN(C(=O)c5ccc(Nc6ncc(F)c(Nc7ccc(C(=O)Nc8ccccc8Cl)cc7)n6)cc5)CC4)CC3)cc2)C(=O)N1 (centres unmarked) [Compound 14, N-(2-chlorophenyl)-4-((2-((4-(4-((4-(2,6-dioxopiperidin-3-yl)phenyl)ethynyl)-[1,4′-bipiperidine]-1′-carbonyl)phenyl)amino)-5-fluoropyrimidin-4-yl)amino)benzamide] | D (D is 0.7 to 0.8) | C (C is 0.4 to 0.6) |
| O=C1CCC(Nc2ccc(N3CCC(CN4CCC5(CCN(C(=O)c6ccc(Nc7ncc(F)c(Nc8ccc(C(=O)Nc9ccccc9Cl)cc8)n7)cc6)C5)C4)CC3)cc2)C(=O)N1 (centres unmarked) [Compound 32, N-(2-chlorophenyl)-4-((2-((4-(7-((1-(4-((2,6-dioxopiperidin-3-yl)amino)phenyl)piperidin-4-yl)methyl)-2,7-diazaspiro[4.4]nonane-2-carbonyl)phenyl)amino)-5-fluoropyrimidin-4-yl)amino)benzamide] | B (B is 0.3 to 0.5) | B (B is 0.2 to 0.4) |
| O=C1CCC(Nc2ccc(N3CCC(CN4C[C@H]5C[C@H](NC(=O)c6ccc(Nc7ncc(F)c(Nc8ccc(C(=O)Nc9ccccc9Cl)cc8)n7)cc6)C[C@H]5C4)CC3)cc2)C(=O)N1 (stereo partly drawn) [Compound 41, N-(2-chlorophenyl)-4-((2-((4-(((3aR,5s,6aS)-2-((1-(4-((2,6-dioxopiperidin-3-yl)amino)phenyl)piperidin-4-yl)methyl)octahydrocyclopenta[c]pyrrol-5-yl)carbamoyl)phenyl)amino)-5-fluoropyrimidin-4-yl)amino)benzamide] | B (B is 0.3 to 0.5) | B (B is 0.2 to 0.4) |
| O=C1CCC(Nc2ccc(N3CCN(C[C@@H]4[C@H]5CN(C(=O)c6ccc(Nc7ncc(F)c(Nc8ccc(C(=O)Nc9ccccc9Cl)cc8)n7)cc6)C[C@@H]45)CC3)cc2)C(=O)N1 (stereo partly drawn) [Compound 37, N-(2-chlorophenyl)-4-((2-((4-((1R,5S,6s)-6-((4-(4-((2,6-dioxopiperidin-3-yl)amino)phenyl)piperazin-1-yl)methyl)-3-azabicyclo[3.1.0]hexane-3-carbonyl)phenyl)amino)-5-fluoropyrimidin-4-yl)amino)benzamide] | B (B is 0.3 to 0.5) | B (B is 0.2 to 0.4) |
| O=C1CCC(c2cccc(N3CCC(CN4CCN(C(=O)Cc5ccc(Nc6ncc(F)c(Nc7ccc(C(=O)Nc8ccccc8Cl)cc7)n6)cc5)CC4)CC3)c2)C(=O)N1 (centres unmarked) [Compound 2, N-(2-chlorophenyl)-4-((2-((4-(2-(4-((1-(3-(2,6-dioxopiperidin-3-yl)phenyl)piperidin-4-yl)methyl)piperazin-1-yl)-2-oxoethyl)phenyl)amino)-5-fluoropyrimidin-4-yl)amino)benzamide] | C (C is 0.5 to 0.7) | B (B is 0.2 to 0.4) |
| O=C1CCC(NC(=O)c2cccc(N3CCC(CN4CCN(C(=O)Cc5ccc(Nc6ncc(F)c(Nc7ccc(C(=O)Nc8ccccc8Cl)cc7)n6)cc5)CC4)CC3)c2)C(=O)N1 (centres unmarked) [Compound 47, 3-(4-((4-(2-(4-((4-((4-((2-chlorophenyl)carbamoyl)phenyl)amino)-5-fluoropyrimidin-2-yl)amino)phenyl)acetyl)piperazin-1-yl)methyl)piperidin-1-yl)-N-(2,6-dioxopiperidin-3-yl)benzamide] | D (D is 0.7 to 0.8) | B (B is 0.2 to 0.4) |
| CN(CC1CCN(c2ccc(C3CCC(=O)NC3=O)cc2)CC1)[C@@H]1CCC[C@@H]1NC(=O)c1ccc(Nc2ncc(F)c(Nc3ccc(C(=O)Nc4ccccc4Cl)cc3)n2)cc1 (stereo partly drawn) [Compound 10, N-(2-chlorophenyl)-4-((2-((4-(((1S,2R)-2-(((1-(4-(2,6-dioxopiperidin-3-yl)phenyl)piperidin-4-yl)methyl)(methyl)amino)cyclopentyl)carbamoyl)phenyl)amino)-5-fluoropyrimidin-4-yl)amino)benzamide] | D (D is 0.7 to 0.8) | C (C is 0.4 to 0.6) |
| O=C1CCN(c2ccc(N3CCN(CCC4CCN(NC(=O)c5ccc(Nc6ncc(F)c(Nc7ccc(C(=O)Nc8ccccc8Cl)cc7)n6)cc5)CC4)CC3)cc2)C(=O)N1 [Compound 54, N-(2-chlorophenyl)-4-[[2-[4-[[4-[2-[4-[4-(2,4-dioxohexahydropyrimidin-1-yl)phenyl]piperazin-1-yl]ethyl]-1-piperidyl]carbamoyl]anilino]-5-fluoro-pyrimidin-4-yl]amino]benzamide] | B (B is 0.3 to 0.5) | B (B is 0.2 to 0.4) |
| CN(CC1CCN(c2ccc(C3CCC(=O)NC3=O)cc2)CC1)C1CC(NC(=O)c2ccc(Nc3ncc(F)c(Nc4ccc(C(=O)Nc5ccccc5Cl)cc4)n3)cc2)C1 (centres unmarked) [Compound 11, N-(2-chlorophenyl)-4-((2-((4-((3-(((1-(4-(2,6-dioxopiperidin-3-yl)phenyl)piperidin-4-yl)methyl)(methyl)amino)cyclobutyl)carbamoyl)phenyl)amino)-5-fluoropyrimidin-4-yl)amino)benzamide] | D (D is 0.7 to 0.8) | B (B is 0.2 to 0.4) |
| O=C1CC[C@H](NC(=O)c2ccc(N3CCN(CCC4CCN(NC(=O)c5ccc(Nc6ncc(F)c(Nc7ccc(C(=O)Nc8ccccc8Cl)cc7)n6)cc5)CC4)CC3)cc2F)C(=O)N1 [Compound 89, (S)-4-(4-(2-(1-(4-((4-((4-((2-chlorophenyl)carbamoyl)phenyl)amino)-5-fluoropyrimidin-2-yl)amino)benzamido)piperidin-4-yl)ethyl)piperazin-1-yl)-N-(2,6-dioxopiperidin-3-yl)-2-fluorobenzamide] | B (B is 0.3 to 0.5) | B (B is 0.2 to 0.4) |
